Assay results: ChEMBL document CHEMBL3885861, “Open TG-GATES”

Organism: Rattus norvegicus
Test: Open TG-GATES - Regimen: Daily Repeat
Type: toxicity, organism-based, Sprague-Dawley
Design: regimen Daily Repeat, gender Male, age 6 weeks
Details: in vivo, po, route gavage; for APTT / Bas / Eos / Fbg / Hb / Ht / Lym / MCH / MCHC / MCV / Mono / Neu / PT / Plat / RBC / Ret / WBC: tissue Blood; for A/G / ALP / ALT / AST / BUN / CRE / Ca / Cl / DBIL / GLC / IP / K / LDH / Na / PL / RALB / TBIL / TC / TG / TP / gamma-GTP: tissue Plasma
[1] = 0 mg/kg, 72 h, dose level Control, time 3 day
[2] = 0 mg/kg, […], dose level Control, time 7 day
[3] = 0 mg/kg, […], dose level Control, time 14 day
[4] = 0 mg/kg, […], dose level Control, time 28 day
[5] = 10 mg/kg, 72 h, dose level Low, time 3 day
[6] = 10 mg/kg, […], dose level Low, time 7 day
[7] = 10 mg/kg, […], dose level Low, time 14 day
[8] = 10 mg/kg, […], dose level Low, time 28 day

## Cn1cc[nH]c1=S [METHIMAZOLE]
[1]
  TERMINAL_BW: 217.3 g
  APTT: 21.2 s
  Bas: 0%
  Eos: 1%
  Fbg: 310.8 mg/dL
  Hb: 13.8 g/dL
  Ht: 38.2%
  Lym: 84.8%
  MCH: 22.7 pg
  MCHC: 36.1%
  MCV: 62.8 fL
  Mono: 1.6%
  Neu: 11.8%
  PT: 16.2 s
  Plat: 126.3 x10_4/uL
  RBC: 609 x10_4/ul
  Ret: 6.7%
  WBC: 107.5 x10_2/uL
  A/G: 1.3
  ALP: 1736 IU/L
  ALT: 41.4 IU/L
  AST: 68 IU/L
  BUN: 17 mg/dL
  CRE: 0.1 mg/dL
  Ca: 10.8 mg/dL
  Cl: 105.8 meq/L
  DBIL: 0.002 mg/dL
  GLC: 190.8 mg/dL
  IP: 6.8 mg/dL
  K: 4.1 meq/L
  LDH: 187.8 IU/L
  Na: 141.8 meq/L
  PL: 161 mg/dL
  RALB: 3.2 g/dL
  TBIL: 0.014 mg/dL
  TC: 89.4 mg/dL
  TG: 93.8 mg/dL
  TP: 5.7 g/dL
  gamma-GTP: 1.2 IU/L
[2]
  TERMINAL_BW: 252.2 g
  APTT: 20.9 s
  Bas: 0%
  Eos: 0.8%
  Fbg: 321.4 mg/dL
  Hb: 14.2 g/dL
  Ht: 38.9%
  Lym: 80.2%
  MCH: 22.3 pg
  MCHC: 36.5%
  MCV: 60.9 fL
  Mono: 2.6%
  Neu: 15.6%
  PT: 15.9 s
  Plat: 115.9 x10_4/uL
  RBC: 638 x10_4/ul
  Ret: 5.8%
  WBC: 112.3 x10_2/uL
  A/G: 1.2
  ALP: 1790.2 IU/L
  ALT: 39 IU/L
  AST: 75.8 IU/L
  BUN: 17.2 mg/dL
  CRE: 0.2 mg/dL
  Ca: 10.6 mg/dL
  Cl: 107 meq/L
  DBIL: 0 mg/dL
  GLC: 195.4 mg/dL
  IP: 7.5 mg/dL
  K: 4.1 meq/L
  LDH: 290.8 IU/L
  Na: 142.2 meq/L
  PL: 163.4 mg/dL
  RALB: 3 g/dL
  TBIL: 0.002 mg/dL
  TC: 84.8 mg/dL
  TG: 126 mg/dL
  TP: 5.5 g/dL
  gamma-GTP: 1 IU/L
[3]
  TERMINAL_BW: 307.5 g
  APTT: 22.2 s
  Bas: 0%
  Eos: 0.6%
  Fbg: 331.8 mg/dL
  Hb: 13.7 g/dL
  Ht: 39.4%
  Lym: 80.6%
  MCH: 20.5 pg
  MCHC: 34.9%
  MCV: 58.7 fL
  Mono: 1.8%
  Neu: 15.8%
  PT: 16.3 s
  Plat: 117.4 x10_4/uL
  RBC: 672.6 x10_4/ul
  Ret: 4.9%
  WBC: 112.2 x10_2/uL
  A/G: 1.1
  ALP: 1783.8 IU/L
  ALT: 42.8 IU/L
  AST: 71 IU/L
  BUN: 18.2 mg/dL
  CRE: 0.2 mg/dL
  Ca: 10.6 mg/dL
  Cl: 106 meq/L
  DBIL: 0 mg/dL
  GLC: 182 mg/dL
  IP: 7 mg/dL
  K: 4.3 meq/L
  LDH: 198.6 IU/L
  Na: 142.2 meq/L
  PL: 158.6 mg/dL
  RALB: 3 g/dL
  TBIL: 0.014 mg/dL
  TC: 75.4 mg/dL
  TG: 150.2 mg/dL
  TP: 5.8 g/dL
  gamma-GTP: 1.6 IU/L
[4]
  TERMINAL_BW: 373.3 g
  APTT: 22.6 s
  Bas: 0%
  Eos: 1%
  Fbg: 316.6 mg/dL
  Hb: 15.2 g/dL
  Ht: 42.9%
  Lym: 82.4%
  MCH: 19.3 pg
  MCHC: 35.3%
  MCV: 54.7 fL
  Mono: 2.2%
  Neu: 13.2%
  PT: 16.4 s
  Plat: 97.4 x10_4/uL
  RBC: 785.4 x10_4/ul
  Ret: 2.6%
  WBC: 113.4 x10_2/uL
  A/G: 1.1
  ALP: 1110.8 IU/L
  ALT: 40.4 IU/L
  AST: 65.8 IU/L
  BUN: 18.4 mg/dL
  CRE: 0.2 mg/dL
  Ca: 10.5 mg/dL
  Cl: 105.4 meq/L
  DBIL: 0.002 mg/dL
  GLC: 198.8 mg/dL
  IP: 6.3 mg/dL
  K: 4.4 meq/L
  LDH: 191.8 IU/L
  Na: 142.4 meq/L
  PL: 149.2 mg/dL
  RALB: 3.2 g/dL
  TBIL: 0.002 mg/dL
  TC: 65.8 mg/dL
  TG: 168 mg/dL
  TP: 6 g/dL
  gamma-GTP: 1 IU/L
[5]
  TERMINAL_BW: 223.1 g
  APTT: 19.4 s
  Bas: 0%
  Eos: 1.2%
  Fbg: 325.2 mg/dL
  Hb: 13.7 g/dL
  Ht: 38.6%
  Lym: 81.8%
  MCH: 21.9 pg
  MCHC: 35.6%
  MCV: 61.5 fL
  Mono: 2.6%
  Neu: 13.6%
  PT: 16.4 s
  Plat: 128.5 x10_4/uL
  RBC: 628.2 x10_4/ul
  Ret: 6.5%
  WBC: 95 x10_2/uL
  A/G: 1.1
  ALP: 1789.2 IU/L
  ALT: 40.8 IU/L
  AST: 65.6 IU/L
  BUN: 16.8 mg/dL
  CRE: 0.1 mg/dL
  Ca: 11.1 mg/dL
  Cl: 106.8 meq/L
  DBIL: 0 mg/dL
  GLC: 184 mg/dL
  IP: 6.3 mg/dL
  K: 4.2 meq/L
  LDH: 170 IU/L
  Na: 141.8 meq/L
  PL: 183 mg/dL
  RALB: 3.1 g/dL
  TBIL: 0.004 mg/dL
  TC: 101.6 mg/dL
  TG: 128.6 mg/dL
  TP: 5.8 g/dL
  gamma-GTP: 1.2 IU/L
[6]
  TERMINAL_BW: 253.1 g
  APTT: 20.3 s
  Bas: 0%
  Eos: 1%
  Fbg: 333 mg/dL
  Hb: 13.9 g/dL
  Ht: 38.1%
  Lym: 80%
  MCH: 22.3 pg
  MCHC: 36.4%
  MCV: 61.3 fL
  Mono: 2.6%
  Neu: 15.6%
  PT: 16.4 s
  Plat: 121.5 x10_4/uL
  RBC: 622.8 x10_4/ul
  Ret: 5.6%
  WBC: 102.3 x10_2/uL
  A/G: 1.1
  ALP: 1430.4 IU/L
  ALT: 38 IU/L
  AST: 65.8 IU/L
  BUN: 17.4 mg/dL
  CRE: 0.2 mg/dL
  Ca: 10.8 mg/dL
  Cl: 107.4 meq/L
  DBIL: 0 mg/dL
  GLC: 177.8 mg/dL
  IP: 7.1 mg/dL
  K: 4.1 meq/L
  LDH: 232.4 IU/L
  Na: 142 meq/L
  PL: 171.8 mg/dL
  RALB: 3 g/dL
  TBIL: 0 mg/dL
  TC: 90.8 mg/dL
  TG: 149 mg/dL
  TP: 5.9 g/dL
  gamma-GTP: 1 IU/L
[7]
  TERMINAL_BW: 300.3 g
  APTT: 22.1 s
  Bas: 0%
  Eos: 0.8%
  Fbg: 318.8 mg/dL
  Hb: 14 g/dL
  Ht: 40.7%
  Lym: 85.2%
  MCH: 20.1 pg
  MCHC: 34.5%
  MCV: 58.4 fL
  Mono: 2%
  Neu: 11.6%
  PT: 16.5 s
  Plat: 110.2 x10_4/uL
  RBC: 697 x10_4/ul
  Ret: 4.3%
  WBC: 101.8 x10_2/uL
  A/G: 1.1
  ALP: 1277.4 IU/L
  ALT: 40.6 IU/L
  AST: 62.6 IU/L
  BUN: 17.6 mg/dL
  CRE: 0.2 mg/dL
  Ca: 10.6 mg/dL
  Cl: 106.6 meq/L
  DBIL: 0 mg/dL
  GLC: 176.8 mg/dL
  IP: 6.1 mg/dL
  K: 4.1 meq/L
  LDH: 197.6 IU/L
  Na: 142.2 meq/L
  PL: 170.2 mg/dL
  RALB: 3.2 g/dL
  TBIL: 0.01 mg/dL
  TC: 96 mg/dL
  TG: 134 mg/dL
  TP: 6.1 g/dL
  gamma-GTP: 2 IU/L
[8]
  TERMINAL_BW: 356.4 g
  APTT: 23.7 s
  Bas: 0%
  Eos: 1%
  Fbg: 306 mg/dL
  Hb: 15 g/dL
  Ht: 42.4%
  Lym: 84.4%
  MCH: 19.4 pg
  MCHC: 35.4%
  MCV: 54.8 fL
  Mono: 2.4%
  Neu: 11%
  PT: 16.7 s
  Plat: 87.5 x10_4/uL
  RBC: 773 x10_4/ul
  Ret: 2%
  WBC: 108.5 x10_2/uL
  A/G: 1.1
  ALP: 1026.6 IU/L
  ALT: 29.8 IU/L
  AST: 51 IU/L
  BUN: 19.2 mg/dL
  CRE: 0.2 mg/dL
  Ca: 10.7 mg/dL
  Cl: 106.4 meq/L
  DBIL: 0.002 mg/dL
  GLC: 184.8 mg/dL
  IP: 5.9 mg/dL
  K: 4.1 meq/L
  LDH: 143.8 IU/L
  Na: 142.6 meq/L
  PL: 160 mg/dL
  RALB: 3.5 g/dL
  TBIL: 0.004 mg/dL
  TC: 81.2 mg/dL
  TG: 165.4 mg/dL
  TP: 6.6 g/dL
  gamma-GTP: 1.8 IU/L
